# Where two headings read alike, the source gives them in different places.
# Tests used:
# SapM [1] = biological target: T1, SapM (Mycobacterium tuberculosis, UniProt O53361); test: biochemical; format: biochemical; conditions: for %SA (percentage specific activity of SapM) / remaining activity at 100 µM / inhibition at 100 µM / effect on SapM enzyme activity: compounds at 100 µM; for %SA (percentage specific activity of SapM) / remaining activity at 100 µM: relative to pNPP DMSO control; for remaining activity at 100 µM: 0.5 h, read-out: %SA (percentage specific activity of SapM); for inhibition at 100 µM: read-out: inhibition of SapM activity (reduction in SA); for IC50: pNPP assay, dose-response
# T1 construct: made in house; host or cells: Escherichia coli C41 (DE3)
# T1 sequence (O53361 44-299): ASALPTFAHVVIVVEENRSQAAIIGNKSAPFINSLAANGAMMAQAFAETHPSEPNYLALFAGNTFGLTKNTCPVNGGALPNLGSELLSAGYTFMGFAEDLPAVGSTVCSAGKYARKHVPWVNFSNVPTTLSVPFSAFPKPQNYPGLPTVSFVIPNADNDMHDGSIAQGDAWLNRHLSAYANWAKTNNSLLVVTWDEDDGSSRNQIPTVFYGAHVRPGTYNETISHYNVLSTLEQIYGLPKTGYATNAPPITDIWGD
# MptpA = MptpA (Mycobacterium tuberculosis, UniProt P9WIA1); test: biochemical; conditions: pNPP assay, pH 6
# MptpB = MptpB (Mycobacterium tuberculosis, UniProt I6WXK4); test: biochemical; conditions: pNPP assay, pH 6
# SapM [2] = biological target: T1, SapM; design: method as in PMID 31312014; conditions: previously reported; cited from earlier work
# MptpA, sequence (P9WIA1 whole entry): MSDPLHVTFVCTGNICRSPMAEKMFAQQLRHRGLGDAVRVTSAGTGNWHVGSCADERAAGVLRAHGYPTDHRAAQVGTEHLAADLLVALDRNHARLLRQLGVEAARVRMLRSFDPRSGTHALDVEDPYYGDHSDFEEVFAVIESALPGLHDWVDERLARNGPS
# MptpB, sequence (I6WXK4 whole entry, looked up): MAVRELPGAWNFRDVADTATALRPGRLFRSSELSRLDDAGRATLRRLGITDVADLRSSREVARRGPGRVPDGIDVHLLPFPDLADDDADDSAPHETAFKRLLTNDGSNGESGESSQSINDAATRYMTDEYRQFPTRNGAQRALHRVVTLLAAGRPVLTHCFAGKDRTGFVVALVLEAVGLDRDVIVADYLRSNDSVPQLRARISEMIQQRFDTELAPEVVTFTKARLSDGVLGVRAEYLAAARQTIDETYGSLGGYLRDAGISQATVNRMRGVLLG
compound,measurement,setting,value
"N#CC(C#N)=Cc1ccc([N+](=O)[O-])c(O)c1 [Compound 19, Tyrphostin AG 126]",%SA (percentage specific activity of SapM),SapM [1],99.0 ± 5.5%
"CC(C)=CC[C@@H](O)C1=CC(=O)c2c(O)ccc(O)c2C1=O [Compound 21, Shikonin]",remaining activity at 100 µM,SapM [1],88.9 ± 4.3%
"O=c1cc(-c2ccc(O)cc2)oc2cc(O)cc(O)c12 [Compound 22, Apigenin]",remaining activity at 100 µM,SapM [1],103 ± 1.1%
"O=c1c(-c2ccc(O)cc2)coc2cc(O)ccc12 [Compound 23, Daidzein]",remaining activity at 100 µM,SapM [1],108 ± 17.2%
"O=c1c(-c2ccc(O)cc2)coc2cc(O)cc(O)c12 [Compound 24, Genistein]",remaining activity at 100 µM,SapM [1],84.1 ± 6.4%
"Cc1cc(O)c2c(c1)C(=O)c1cc(O)cc(O)c1C2=O [Compound 25, Emodin]",remaining activity at 100 µM,SapM [1],68.6 ± 7.2%
same,inhibition at 100 µM,SapM [1],~30%
"O=c1c(O)c(-c2cc(O)c(O)c(O)c2)oc2cc(O)cc(O)c12 [Compound 26, Myricetin]",remaining activity at 100 µM,SapM [1],84 ± 6.2%
same,effect on SapM enzyme activity,SapM [1],none or poor activity
"N[C@H](C(=O)O)[C@H](O)c1ccc(O)c(O)c1 [Compound 27, L-DOPS]",remaining activity at 100 µM,SapM [1],85.9 ± 4.2%
"O.O.O=c1c(O)c(-c2ccc(O)c(O)c2)oc2cc(O)cc(O)c12 [Compound 28, Quercetin dehydrate]",effect on SapM enzyme activity,SapM [1],none or poor activity
same,%SA (percentage specific activity of SapM),SapM [1],78.9 ± 9.2%
"O=C(O)c1cc(O)c(O)c(O)c1 [Compound 29, Gallic acid]",remaining activity at 100 µM,SapM [1],30.7 ± 3.6%
same,inhibition at 100 µM,SapM [1],~70%
same,IC50,SapM [1],63 ± 1.5 µM
same,IC50,MptpA,> 100 µM
same,IC50,MptpB,> 100 µM
"Oc1cc(O)c2c(c1)O[C@@H](c1cc(O)c(O)c(O)c1)[C@H](O)C2 [Compound 30, (−)-Gallocatechin]",remaining activity at 100 µM,SapM [1],60.4 ± 6.4%
same,inhibition at 100 µM,SapM [1],~40%
"Oc1cc(O)c2c(c1)O[C@H](c1ccc(O)c(O)c1)[C@H](O)[C@H]2c1c(O)cc(O)c2c1O[C@H](c1ccc(O)c(O)c1)[C@H](O)C2 [Compound 31, Procyanidin B2]",remaining activity at 100 µM,SapM [1],100 ± 14.5%
"Oc1cc(O)c2c(c1)O[C@H](c1ccc(O)c(O)c1)[C@H](O)C2 [Compound 32, (−)-Epicatechin]",remaining activity at 100 µM,SapM [1],97.9 ± 7.2%
"Oc1cc(O)c2c(c1)O[C@H](c1ccc(O)c(O)c1)[C@@H](O)C2 [Compound 33, (+)-Catechin]",%SA (percentage specific activity of SapM),SapM [1],95.9 ± 12.3%
"O=C1O[C@H]([C@@H](O)CO)C(O)=C1O [L-AC, L-ascorbic acid]",IC50,SapM [2],> 200 µM
Tyrphostin AG 114 [Compound 15],%SA (percentage specific activity of SapM),SapM [1],48.6 ± 1.1%
same,IC50,SapM [1],78.4 ± 2.7 µM
Tyrphostin AG 974 [Compound 17],%SA (percentage specific activity of SapM),SapM [1],71.9 ± 1.4%
